Data as given in patent US20220380347A1, “INHIBITORS OF CYSTEINE PROTEASES AND METHODS OF USE THEREOF” (Pardes Biosciences, Inc., priority 2020, published 2022).
“And” between values parts separate entries of the source, which are not always exact repeats. Identical values can stand only once. Like-named read-outs stand apart in the source and are kept apart here.

What was measured:
HCov OC43 = assay: HCoV OC43 cytopathic effect (CPE) assay, CellTiter Glo; format: cell-based, human coronavirus (HCov) OC43
Description: Example 238: Evaluation of antiviral activity of compounds against human coronavirus (HCov) 229E and OC43 in the cytopathic effect (CPE) assays
Compounds were assayed using standard methods against multiple coronaviral strains, including HCoV 229E and OC43 strains. The antiviral activity of compounds was calculated based on the protection of the virus-induced CPE at each concentration normalized by the virus control.
Reference compound used was remdesivir; detection reagent: CellTiter Glo.) The CPE were measured by CellTiter Glo following the manufacturer's manual. The antiviral activity of compounds was calculated based on the protection of the virus-induced CPE at each concentration normalized by the virus control.
Cell viability was measured with CellTiter Glo.

[1] = target: COVID-19 (nCoV-2019, SARS-CoV2) Mpro (Severe acute respiratory syndrome coronavirus 2, UniProt P0DTD1); assay: COVID-19 (nCoV-2019, SARS-CoV2) Mpro enzymatic assay; format: biochemical; conditions: 25 nM Mpro, 25 μM substrate; read-out: COVID-19 Mpro IC50
229E Mpro = 229E Mpro (Human coronavirus 229E, UniProt P0C6X1); assay: 229E Mpro enzymatic assay (standard methods, SARS-CoV2 Mpro assay given as exemplary); format: biochemical, human coronavirus (HCov) 229E
229E Mpro, sequence (P0C6X1 2966-3267): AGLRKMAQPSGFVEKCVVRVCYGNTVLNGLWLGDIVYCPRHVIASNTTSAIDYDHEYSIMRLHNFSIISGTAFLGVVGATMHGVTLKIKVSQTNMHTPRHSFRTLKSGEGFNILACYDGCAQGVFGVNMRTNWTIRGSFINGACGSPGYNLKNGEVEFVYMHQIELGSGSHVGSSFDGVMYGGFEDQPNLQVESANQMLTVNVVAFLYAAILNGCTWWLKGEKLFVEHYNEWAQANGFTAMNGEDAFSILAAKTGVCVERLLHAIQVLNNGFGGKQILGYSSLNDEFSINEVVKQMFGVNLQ
Description: Compounds were assayed using standard methods to assess compound activity and IC50. As an exemplary for assessment of the SARS-COV2 Mpro, the C-His6-tagged Mpro (NC_045512) was cloned, expressed in E. coli and purified. The assay buffer contained 20 mM of Tris-HCl (pH 7.3), 100 mM of NaCl, 1 mM of EDTA, 5 mM of TCEP and 0.1% BSA. The final concentrations of the Mpro protein and substrate were 25 nM and 25 μM, respectively, in the Mpro enzymatic assay. The Km of the Mpro substrate for the protease was 13.5 μM.
The compounds were added to an assay plate. […] For no inhibition control (ZPE, zero percent effect), no compound was added.
IC50 values of compounds were calculated with the GraphPad Prism software using the nonlinear regression model of log(inhibitor) vs. response—Variable slope (four parameters). The inhibition activity was calculated using the formula below, IC50 values is calculated using the Inhibition % data.
Inhibition %=[(Sample-Average ZPE)/(Average HPE-Average ZPE)]*100%^#

[2] = read-out: OC43 IC50 (uM) MEDIAN, median
[3] = Betacoronavirus 1, OC43, read-out: OC43 IC50 (uM) MEDIAN, median

| SMILES | IC50 (HCov OC43; [2]) [µM] | IC50 [1] | EC50 (229E Mpro; read-out: 229E Mpro EC50) [nM] | IC50 (HCov OC43; [3]) [µM] | EC50 (229E Mpro; 229E Mpro EC50) [nM] |
| --- | --- | --- | --- | --- | --- |
| C[C@@]1(O)C[C@H](C(=O)N(c2ccc(S(F)(F)(F)(F)F)cc2)C(C(=O)NC2CCC(F)(F)CC2)c2cccnc2F)N(C#N)C1 (single isomer, unassigned) [1158 Isomer 2] | < 2 | 2000 to 10000 nM | < 2000 | – | – |
| CO[C@@H]1C[C@H](C(=O)N(c2ccc(S(F)(F)(F)(F)F)cc2)C(C(=O)NC2CCOC(C)(C)C2)c2cccnc2)N(C#N)C1 (single isomer, unassigned) [1165 Isomer 1] | – | < 2000 nM | – | < 2 | < 2000 |
| CO[C@@H]1C[C@H](C(=O)N(c2ccc(S(F)(F)(F)(F)F)cc2)C(C(=O)NC2CCOC(C)(C)C2)c2cccnc2)N(C#N)C1 (single isomer, unassigned) [1165 Isomer 2] | 2 to 10 | 10000 to 30000 nM | < 2000 | – | – |
| CO[C@@H]1C[C@H](C(=O)N(c2ccc(S(F)(F)(F)(F)F)cc2)C(C(=O)Nc2ccc3c(c2)OCCO3)c2cccnc2)N(C#N)C1 (single isomer, unassigned) [1170 Isomer 1] | – | 10000 to 30000 nM | – | 2 to 10 | 2000 to 10000 |
| CO[C@@H]1C[C@H](C(=O)N(c2ccc(S(F)(F)(F)(F)F)cc2)C(C(=O)Nc2ccc3c(c2)OCCO3)c2cccnc2)N(C#N)C1 (single isomer, unassigned) [1170 Isomer 2] | < 2 | < 2000 nM | – | – | < 2000 |
| CO[C@@H]1C[C@H](C(=O)N(c2ccc(S(F)(F)(F)(F)F)cc2)C(C(=O)N2CC3(COC3)C2)c2cccnc2)N(C#N)C1 (single isomer, unassigned) [1171 Isomer 1] | < 2 | 10000 to 30000 nM and < 2000 nM | – | 2 to 10 | < 2000 |
| CO[C@@H]1C[C@H](C(=O)N(c2ccc(S(F)(F)(F)(F)F)cc2)C(C(=O)N2CCCC3(COC3)C2)c2cccnc2)N(C#N)C1 (single isomer, unassigned) [1175 Isomer 2] | 2 to 10 | 10000 to 30000 nM | < 2000 | – | – |
| CO[C@@H]1C[C@H](C(=O)N(c2ccc(S(F)(F)(F)(F)F)cc2)C(C(=O)NCC2(C)COC2)c2cccnc2)N(C#N)C1 (single isomer, unassigned) [1176 Isomer 1] | – | < 2000 nM | – | < 2 | < 2000 |
| CO[C@@H]1C[C@H](C(=O)N(c2ccc(S(F)(F)(F)(F)F)cc2)C(C(=O)NCC2(C)COC2)c2cccnc2)N(C#N)C1 (single isomer, unassigned) [1176 Isomer 2] | 2 to 10 | 10000 to 30000 nM | < 2000 | – | – |
| COc1ccc(NC(=O)C(c2cccnc2)N(C(=O)[C@H]2C[C@@H](OC)CN2C#N)c2ccc(S(F)(F)(F)(F)F)cc2)cn1 (single isomer, unassigned) [1180 Isomer 1] | – | 2000 to 10000 nM | – | 2 to 10 | 2000 to 10000 |
| COc1ccc(NC(=O)C(c2cccnc2)N(C(=O)[C@H]2C[C@@H](OC)CN2C#N)c2ccc(S(F)(F)(F)(F)F)cc2)cn1 (single isomer, unassigned) [1180 Isomer 2] | < 2 | < 2000 nM | – | – | < 2000 |
| CO[C@@H]1C[C@H](C(=O)N(c2ccc(S(F)(F)(F)(F)F)cc2)C(C(=O)NC2CC3CCC(C2)O3)c2cccnc2)N(C#N)C1 (single isomer, unassigned) [1187 Isomer 1] | – | < 2000 nM | – | < 2 | < 2000 |
| CO[C@@H]1C[C@H](C(=O)N(c2ccc(S(F)(F)(F)(F)F)cc2)C(C(=O)NC2CC3CCC(C2)O3)c2cccnc2)N(C#N)C1 (single isomer, unassigned) [1187 Isomer 2] | < 2 | < 2000 nM | < 2000 | – | – |
| CO[C@@H]1C[C@H](C(=O)N(c2ccc(S(F)(F)(F)(F)F)cc2)C(C(=O)NCC(C)(C)OC)c2cccnc2)N(C#N)C1 (single isomer, unassigned) [1194 Isomer 1] | – | < 2000 nM | – | < 2 | < 2000 |
| CO[C@@H]1C[C@H](C(=O)N(c2ccc(S(F)(F)(F)(F)F)cc2)C(C(=O)NCC(C)(C)OC)c2cccnc2)N(C#N)C1 (single isomer, unassigned) [1194 Isomer 2] | 2 to 10 | 10000 to 30000 nM | < 2000 | – | – |
| CO[C@@H]1C[C@H](C(=O)N(c2ccc(S(F)(F)(F)(F)F)cc2)C(C(=O)NCCc2cc(F)cc(F)c2)c2cccnc2)N(C#N)C1 (single isomer, unassigned) [1196 Isomer 1] | – | 2000 to 10000 nM | – | 2 to 10 | < 2000 |

| SMILES | IC50 (HCov OC43; [2]) [µM] | IC50 [1] | EC50 (229E Mpro; read-out: 229E Mpro EC50) [nM] | IC50 (HCov OC43; [3]) [µM] | EC50 (229E Mpro; 229E Mpro EC50) [nM] |
| --- | --- | --- | --- | --- | --- |
| CO[C@@H]1C[C@H](C(=O)N(c2ccc(S(F)(F)(F)(F)F)cc2)C(C(=O)NCCc2cc(F)cc(F)c2)c2cccnc2)N(C#N)C1 (single isomer, unassigned) [1196 Isomer 2] | < 2 | < 2000 nM | < 2000 | – | – |
| CO[C@@H]1C[C@H](C(=O)N(c2ccc(S(F)(F)(F)(F)F)cc2)C(C(=O)NCCc2cccc(F)c2)c2cccnc2)N(C#N)C1 (single isomer, unassigned) [1197 Isomer 1] | – | < 2000 nM | – | < 2 | < 2000 |
| CO[C@@H]1C[C@H](C(=O)N(c2ccc(S(F)(F)(F)(F)F)cc2)C(C(=O)NCCc2cccc(F)c2)c2cccnc2)N(C#N)C1 (single isomer, unassigned) [1197 Isomer 2] | 2 to 10 | 2000 to 10000 nM | < 2000 | – | – |
| CO[C@@H]1C[C@H](C(=O)N(c2ccc(C(C)(C)C)cc2)C(C)(C(=O)NC2CCC(F)(F)CC2)c2cnccn2)N(C#N)C1 (single isomer, unassigned) [1198 Isomer 1] | – | 10000 to 30000 nM | – | 2 to 10 | 2000 to 10000 |
| CO[C@@H]1C[C@H](C(=O)N(c2ccc(C(C)(C)C)cc2)C(C)(C(=O)NC2CCC(F)(F)CC2)c2cnccn2)N(C#N)C1 (single isomer, unassigned) [1198 Isomer 2] | < 2 | < 2000 nM | – | – | < 2000 |
| CO[C@@H]1C[C@H](C(=O)N(c2ccc(S(F)(F)(F)(F)F)cc2)C(C(=O)NC2CCC(F)(F)CC2)c2cnccc2C)N(C#N)C1 (single isomer, unassigned) [1199 Isomer 1] | – | < 2000 nM | < 2000 | < 2 | – |
| CO[C@@H]1C[C@H](C(=O)N(c2ccc(S(F)(F)(F)(F)F)cc2)C(C(=O)NC2CCC(F)(F)CC2)c2cnccc2C)N(C#N)C1 (single isomer, unassigned) [1199 Isomer 2] | < 2 | < 2000 nM | < 2000 | – | – |
| CO[C@@H]1C[C@H](C(=O)N(c2ccc(S(F)(F)(F)(F)F)cc2)C(C(=O)NC2CCC(F)(F)CC2)c2cnccc2C(F)(F)F)N(C#N)C1 (single isomer, unassigned) [1202 Isomer 1] | – | < 2000 nM | – | < 2 | < 2000 |
| CO[C@@H]1C[C@H](C(=O)N(c2ccc(S(F)(F)(F)(F)F)cc2)C(C(=O)NC2CCC(F)(F)CC2)c2cnccc2C(F)(F)F)N(C#N)C1 (single isomer, unassigned) [1202 Isomer 2] | < 2 | < 2000 nM | < 2000 | – | – |
| CO[C@@H]1C[C@H](C(=O)N(c2ccc(C(C)(C)C)cc2F)C(C(=O)NC2CCC(F)(F)CC2)c2cncc(F)c2)N(C#N)C1 (single isomer, unassigned) [1207 Isomer 1] | 10 to 30 | 2000 to 10000 nM | – | – | 10000 to 30000 |
| CO[C@@H]1C[C@H](C(=O)N(c2ccc(C(C)(C)C)cc2F)C(C(=O)NC2CCC(F)(F)CC2)c2cncc(F)c2)N(C#N)C1 (single isomer, unassigned) [1207 Isomer 2] | > 30 | > 30000 nM | – | – | > 30000 |
| C[C@H]1CN(C#N)[C@H]1C(=O)N(c1ccc(S(F)(F)(F)(F)F)cc1)C(C(=O)NC1CCC(F)(F)CC1)c1cncc(F)c1 (single isomer, unassigned) [1210 Isomer 1] | 10 to 30 | 10000 to 30000 nM | – | – | < 2000 |
| C[C@H]1CN(C#N)[C@H]1C(=O)N(c1ccc(S(F)(F)(F)(F)F)cc1)C(C(=O)NC1CCC(F)(F)CC1)c1cncc(F)c1 (single isomer, unassigned) [1210 Isomer 2] | < 2 | < 2000 nM | < 2000 | – | – |
| C[C@@H]1CN(C#N)[C@H]1C(=O)N(c1ccc(S(F)(F)(F)(F)F)cc1)C(C(=O)NC1CCC(F)(F)CC1)c1cncc(F)c1 (single isomer, unassigned) [1211 Isomer 1] | – | 2000 to 10000 nM | – | < 2 | < 2000 |
| C[C@@H]1CN(C#N)[C@H]1C(=O)N(c1ccc(S(F)(F)(F)(F)F)cc1)C(C(=O)NC1CCC(F)(F)CC1)c1cncc(F)c1 (single isomer, unassigned) [1211 Isomer 2] | < 2 | < 2000 nM | < 2000 | – | – |
